Calls of active or inactive are those of the source.
Key:
[1] = target: Eukaryotic translation initiation factor 4H (Homo sapiens, UniProt Q15056); experiment: inhibitors of translation initiation factor eIF4H – SAR follow-up (AID 435011); type: functional
[2] = target: Polyadenylate-binding protein 1 (Homo sapiens, UniProt P11940); experiment: PABP inhibition in translation initiation, SAR follow-up (AID 435018); type: functional
[3] = target: T1, Dual specificity protein phosphatase 3 (Homo sapiens, UniProt P51452); experiment: SAR VHR1 absorbance Assay for In Vitro dose response studies. [Related pubchem assays (depositor defined):AID1654, AID1661, AID1878, AID1992, AID2004]
[4] = target: T1, Dual specificity protein phosphatase 3; experiment: SAR VHR1 Fluorescent Assay for In Vitro dose response studies. [Related pubchem assays (depositor defined):AID1654, AID1661, AID1878, AID1992, AID2004, AID2070, AID2085]; type: functional
[5] = target: T2, Tyrosine-protein phosphatase non-receptor type 7 (Homo sapiens, UniProt P35236); experiment: redox-active compounds inhibiting HePTP phosphatase – biochemical, fluorescence, mechanism study (AID 2068); type: functional
T2 sequence (P35236 whole entry): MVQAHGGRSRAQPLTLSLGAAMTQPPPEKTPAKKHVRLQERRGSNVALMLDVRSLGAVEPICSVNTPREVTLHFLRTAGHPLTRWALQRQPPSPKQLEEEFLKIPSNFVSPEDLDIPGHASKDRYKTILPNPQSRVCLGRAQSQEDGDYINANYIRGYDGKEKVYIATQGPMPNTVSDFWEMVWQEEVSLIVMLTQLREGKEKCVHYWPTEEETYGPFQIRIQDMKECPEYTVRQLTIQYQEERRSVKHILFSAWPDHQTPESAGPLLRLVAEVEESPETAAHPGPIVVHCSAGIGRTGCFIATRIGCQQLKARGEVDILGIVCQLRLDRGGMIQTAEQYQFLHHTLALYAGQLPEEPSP

[6] = target: T3, Dual specificity protein phosphatase 6 (Rattus norvegicus, UniProt Q64346); type: functional;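 further: confirmatory in vitro dose-response testing of MKP-3 inhibition; recombinant His-tagged MKP-3 made in E. coli BL21 with OMFP substrate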
T3 sequence (Q64346 whole entry): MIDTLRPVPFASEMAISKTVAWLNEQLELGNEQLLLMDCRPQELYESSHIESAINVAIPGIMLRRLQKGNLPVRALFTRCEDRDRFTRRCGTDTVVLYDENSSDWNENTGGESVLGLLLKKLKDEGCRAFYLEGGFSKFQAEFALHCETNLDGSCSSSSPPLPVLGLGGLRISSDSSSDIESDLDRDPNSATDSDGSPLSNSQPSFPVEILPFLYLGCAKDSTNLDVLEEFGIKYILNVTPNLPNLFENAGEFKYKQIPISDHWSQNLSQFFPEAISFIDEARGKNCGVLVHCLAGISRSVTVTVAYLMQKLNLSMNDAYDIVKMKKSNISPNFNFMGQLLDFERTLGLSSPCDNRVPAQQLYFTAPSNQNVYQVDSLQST

[7] = Luminescent dose response cell-based high throughput screening assay for inhibitors of the Janus kinase 2 mutant JAK2V617F. [Related pubchem assays: 1446 (Primary screen.), 1521 (Confirmation assay.), 1486 (Counter screen.)]; type: functional
[8] = test system: Streptococcus sp. 'group A'; experiment: Streptococcus pyogenes SK(-)GAS viability under kanamycin – luminescence, BacTiterGlo, confirmation, counter-screen for streptokinase expression inhibitor project, dose response (AID 1900); type: functional, organism-based
[9] = target: T4, Voltage-gated N-type calcium channel alpha-1B subunit/Amyloid beta A4 precursor protein-binding family A member 1 (Homo sapiens, UniProt Q00975+Q02410); type: protein assay
Streptokinase A = target: T5, Streptokinase A (Streptococcus pyogenes serotype M1, UniProt P10520); experiment: viability-normalized secreted streptokinase activity reduction – plasminogen activation absorbance, OD405, dose response (AID 1914); type: functional, Streptococcus pyogenes M1 GAS;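 further: secreted streptokinase activity via plasminogen activation per viability signal from cell pellet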
T5 sequence (P10520 whole entry): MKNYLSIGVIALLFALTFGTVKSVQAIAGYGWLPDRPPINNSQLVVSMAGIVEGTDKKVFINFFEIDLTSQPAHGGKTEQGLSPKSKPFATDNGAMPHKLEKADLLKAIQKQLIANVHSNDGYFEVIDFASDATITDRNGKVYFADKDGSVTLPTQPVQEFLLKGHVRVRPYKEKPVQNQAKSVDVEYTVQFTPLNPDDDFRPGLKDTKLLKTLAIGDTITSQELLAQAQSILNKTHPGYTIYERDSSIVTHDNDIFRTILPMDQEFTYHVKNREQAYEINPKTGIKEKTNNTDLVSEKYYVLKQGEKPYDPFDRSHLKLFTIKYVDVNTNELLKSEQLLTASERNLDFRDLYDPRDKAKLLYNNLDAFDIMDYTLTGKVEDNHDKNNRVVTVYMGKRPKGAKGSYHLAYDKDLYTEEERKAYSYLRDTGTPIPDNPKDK

[10] = target: T4, Voltage-gated N-type calcium channel alpha-1B subunit/Amyloid beta A4 precursor protein-binding family A member 1; type: protein assay; remark: listed apart in the source
[11] = Trypanosoma cruzi growth suppression in host cells – NIH3T3 host cells, beta-gal luminescence, confirmation (AID 2044); type: functional, cell-based;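 further: intracellular parasites grown in NIH/3T3 mouse fibroblasts as host cells; luminescent beta-galactosidase reporter signal from transgenic T. cruzi replicating inside host cells; inhibitors lower the luminescence signal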
[12] = NIH3T3 cell viability loss – ATP luminescence, mouse fibroblasts, counter-screen, dose response (AID 2010); type: functional, cell-based;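 further: cells exposed to compound for about 90 hours before reading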
Streptococcus = experiment: GAS UMAA2166 growth inhibition – luminescence, BacTiterGlo, counter-screen for streptokinase expression inhibitor project, dose response (AID 1915); type: functional, organism-based;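 further: potency for reduction of bacterial viability or growth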
[13] = target: Glucose-6-phosphate 1-dehydrogenase (Homo sapiens, UniProt P11413); experiment: inhibition of Homo sapiens G6PD, dose series – biochemical, fluorescence, selectivity assay for P. falciparum G6PD inhibitor project, dose response (AID 504792); type: functional
Beta-galactosidase = Beta-galactosidase (Escherichia coli, UniProt Q8VNN2); experiment: detection-enzyme interference by beta-gal modulators – biochemical, E. coli enzyme, set 3, artefact control for CCR6 antagonist project, dose response (AID 504712); type: functional
CHO = CHO cell viability loss, potency – luminescence, cytotoxicity control for TLR9-MyD88 binding inhibitor project, dose response (AID 588339); type: functional, cell-based, hamster; details: Cricetulus griseus;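 further: CHO cells stably coexpressing TLR9 and MyD88 fusions from primary screen; compound exposure lasted 48 hours before viability readout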
[14] = target: Heat shock protein HSP 90-alpha (Homo sapiens, UniProt P07900); type: functional, organism-based
Melanocortin receptor 4 = Melanocortin receptor 4 (Homo sapiens, UniProt P32245); experiment: inhibitors of MC4R cAMP signaling – cell-based, TR-FRET, biased antagonists, dose response (AID 602298); type: functional;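 further: antagonist potency against agonist-stimulated cAMP production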
[15] = reduction of Shn3 3'UTR-driven luciferase in osteoblasts – cell-based, Clone20 osteoblasts, firefly luciferase, cherry-picked, dose response (AID 624132); type: functional;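 further: firefly luciferase luminescence from reporter carrying the Shn3 3'UTR in osteoblasts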
[16] = loss of viability in HepG2 cells – cell-based, CellTiter-Glo, cherry-picked, cytotoxicity control for Shn3 inhibitor project, dose response (AID 624134); type: functional
[17] = non-specific 3'UTR reporter inhibition in Clone20-Shn3RL – cell-based, Renilla luciferase, cherry-picked, counter-screen for Shn3 inhibitor project, dose response (AID 624133); type: functional
[18] = cAMP pathway inhibition in counterscreen cell line – TR-FRET cAMP detection, counter-screen for MC4R biased antagonist project, dose response (AID 602305); type: functional, cell-based;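 further: U2OS cells stimulated with forskolin near its EC80 as the cAMP inducer; potency is for inhibition of forskolin-stimulated cAMP signaling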
[19] = target: T6, RNA-binding protein pos-1 (Caenorhabditis elegans, UniProt G5EF15); experiment: disruptors of C. elegans POS-1 RNA interaction – biochemical, fluorescence polarization, dose response (AID 1964);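 further: purified POS-1 fused to maltose binding protein made in E. coli; potency of compounds blocking POS-1 binding to fluorescent RNA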
T6 sequence (G5EF15 whole entry): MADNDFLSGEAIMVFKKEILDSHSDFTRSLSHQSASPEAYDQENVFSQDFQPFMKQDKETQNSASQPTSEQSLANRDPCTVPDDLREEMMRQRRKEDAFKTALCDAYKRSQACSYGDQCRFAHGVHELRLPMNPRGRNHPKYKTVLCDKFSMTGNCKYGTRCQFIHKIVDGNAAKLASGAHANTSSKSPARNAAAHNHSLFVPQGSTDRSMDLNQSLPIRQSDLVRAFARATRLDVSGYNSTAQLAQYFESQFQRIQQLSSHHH

[20] = target: T7, Zinc finger protein mex-5 (Caenorhabditis elegans, UniProt Q9XUB2); experiment: potency of MEX-5 RNA-binding blockers – biochemical, C. elegans, fluorescence polarization, dose response (AID 1960)
T7 sequence (Q9XUB2 whole entry): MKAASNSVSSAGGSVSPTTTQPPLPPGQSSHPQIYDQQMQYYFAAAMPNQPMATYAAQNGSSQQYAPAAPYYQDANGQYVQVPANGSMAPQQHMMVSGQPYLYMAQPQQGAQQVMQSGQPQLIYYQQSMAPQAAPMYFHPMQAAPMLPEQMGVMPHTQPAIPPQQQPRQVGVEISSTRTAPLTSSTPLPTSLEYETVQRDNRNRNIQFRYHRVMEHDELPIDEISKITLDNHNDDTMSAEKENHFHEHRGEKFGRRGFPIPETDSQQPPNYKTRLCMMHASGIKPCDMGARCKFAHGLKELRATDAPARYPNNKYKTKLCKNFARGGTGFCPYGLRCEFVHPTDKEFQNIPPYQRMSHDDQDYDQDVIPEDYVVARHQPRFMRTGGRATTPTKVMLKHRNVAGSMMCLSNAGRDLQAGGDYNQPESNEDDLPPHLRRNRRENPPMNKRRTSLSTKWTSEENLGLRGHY

[21] = viability of PTEN-deleted HCT116 cells – cell-based, HCT116 PTEN knockout, dose response (AID 1047); type: functional;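 further: HCT116 colon tumor cells with PTEN knocked out; cells exposed to compound for 60 hours before readout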
[22] = viability of HCT116 lacking mutant beta-catenin – cell-based, human colon tumor, dose response (AID 1045); type: functional;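 further: HCT116 colon tumor cells with beta catenin knocked out; cells exposed to compound for 60 hours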
ORF 73 = ORF 73 (Human herpesvirus 8, UniProt O40947); experiment: KSHV LANA DNA-binding disruption – biochemical, fluorescence polarization, cherry-picked samples, dose response (AID 504725); set-up: species or system Human gammaherpesvirus 8;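 further: fluorescence polarization of a labeled DNA duplex reporting LANA DNA binding; potency is for inhibitors that block LANA binding to the DNA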
Troponin, cardiac muscle = Troponin, cardiac muscle (Homo sapiens, UniProt P19429+P45379+P63316); experiment: Fluorescence-based biochemical high throughput dose response assay for activators of the calcium sensitivity of cardiac Regulated Thin Filaments (RTF). [Related pubchem assays (depositor defined):AID493008, AID493018, AID504382, AID504383]; type: protein-complex assay
Keap1/Nrf2 = Keap1/Nrf2 (Homo sapiens, UniProt Q14145); experiment: disruptors of Keap1 binding to Nrf2 peptide – biochemical, fluorescence polarization, cherry-picked samples, dose response (AID 588683)
[23] = target: Dual specificity tyrosine-phosphorylation-regulated kinase 1A (Rattus norvegicus, UniProt Q63470); type: biochemical, Homo sapiens
[24] = target: T8, Long-chain-fatty-acid--AMP ligase FadD28 (Mycobacterium tuberculosis, UniProt P9WQ59); experiment: Fluorescence polarization aasay to screen for inhibitors that compete for the binding of FadD28 to a bisubstrate Measured in Biochemical System Using Plate Reader - 2147-01_Inhibitor_Dose_CherryPick_Activity.; type: functional, Mycobacterium tuberculosis H37Rv
T8 sequence (P9WQ59 whole entry): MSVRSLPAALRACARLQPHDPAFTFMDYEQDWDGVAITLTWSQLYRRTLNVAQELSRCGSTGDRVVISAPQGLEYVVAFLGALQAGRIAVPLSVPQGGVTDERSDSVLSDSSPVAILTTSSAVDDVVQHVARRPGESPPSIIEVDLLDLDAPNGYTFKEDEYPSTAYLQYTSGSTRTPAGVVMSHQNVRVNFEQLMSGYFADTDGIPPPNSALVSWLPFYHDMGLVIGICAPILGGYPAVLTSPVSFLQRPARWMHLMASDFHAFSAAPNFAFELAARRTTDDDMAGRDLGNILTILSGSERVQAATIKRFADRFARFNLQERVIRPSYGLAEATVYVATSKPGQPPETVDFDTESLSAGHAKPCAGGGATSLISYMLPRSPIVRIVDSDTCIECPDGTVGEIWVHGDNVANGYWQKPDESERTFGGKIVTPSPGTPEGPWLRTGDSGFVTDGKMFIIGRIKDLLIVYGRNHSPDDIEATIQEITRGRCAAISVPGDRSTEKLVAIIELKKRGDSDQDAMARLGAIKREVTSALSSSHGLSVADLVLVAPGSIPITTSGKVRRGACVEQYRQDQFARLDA

Fibrinogen beta chain [25] = target: T9, Fibrinogen beta chain (Homo sapiens, UniProt P02675); experiment: Fluorescence polarization-based biochemical high throughput dose response assay to identify inhibitors that disrupt the binding of a cyclic peptide (Tn6) to the fibrin proteolytic product D-Dimer and fragment E complex [DD(E )].
Fibrinogen beta chain [26] = target: T9, Fibrinogen beta chain; experiment: Fluorescence polarization-based biochemical high throughput dose response assay to identify inhibitors that disrupt the binding of a cyclic peptide (Tn7) to the fibrin proteolytic product D-Dimer and fragment E complex [DD(E )].

T9 sequence (P02675 whole entry, the tested form may be a part): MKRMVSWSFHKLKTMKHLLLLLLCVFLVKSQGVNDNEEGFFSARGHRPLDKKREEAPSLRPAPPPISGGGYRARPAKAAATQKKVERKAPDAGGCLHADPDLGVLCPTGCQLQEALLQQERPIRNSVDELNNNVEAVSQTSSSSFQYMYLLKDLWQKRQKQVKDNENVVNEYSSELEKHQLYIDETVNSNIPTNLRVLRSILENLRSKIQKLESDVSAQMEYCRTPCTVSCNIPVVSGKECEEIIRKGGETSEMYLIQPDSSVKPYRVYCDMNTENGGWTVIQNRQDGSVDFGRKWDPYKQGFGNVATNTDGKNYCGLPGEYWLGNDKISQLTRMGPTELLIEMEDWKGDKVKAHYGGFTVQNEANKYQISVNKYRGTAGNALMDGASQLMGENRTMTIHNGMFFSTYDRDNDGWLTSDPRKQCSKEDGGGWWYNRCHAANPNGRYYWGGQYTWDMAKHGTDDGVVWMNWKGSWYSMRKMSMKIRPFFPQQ
T1 sequence (P51452 whole entry): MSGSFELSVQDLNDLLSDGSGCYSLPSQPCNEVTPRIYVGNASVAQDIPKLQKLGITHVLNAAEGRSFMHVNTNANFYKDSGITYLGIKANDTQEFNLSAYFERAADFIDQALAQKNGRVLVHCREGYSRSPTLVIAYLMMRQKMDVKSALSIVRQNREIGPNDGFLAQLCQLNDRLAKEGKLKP
T4 sequence (Q00975 whole entry): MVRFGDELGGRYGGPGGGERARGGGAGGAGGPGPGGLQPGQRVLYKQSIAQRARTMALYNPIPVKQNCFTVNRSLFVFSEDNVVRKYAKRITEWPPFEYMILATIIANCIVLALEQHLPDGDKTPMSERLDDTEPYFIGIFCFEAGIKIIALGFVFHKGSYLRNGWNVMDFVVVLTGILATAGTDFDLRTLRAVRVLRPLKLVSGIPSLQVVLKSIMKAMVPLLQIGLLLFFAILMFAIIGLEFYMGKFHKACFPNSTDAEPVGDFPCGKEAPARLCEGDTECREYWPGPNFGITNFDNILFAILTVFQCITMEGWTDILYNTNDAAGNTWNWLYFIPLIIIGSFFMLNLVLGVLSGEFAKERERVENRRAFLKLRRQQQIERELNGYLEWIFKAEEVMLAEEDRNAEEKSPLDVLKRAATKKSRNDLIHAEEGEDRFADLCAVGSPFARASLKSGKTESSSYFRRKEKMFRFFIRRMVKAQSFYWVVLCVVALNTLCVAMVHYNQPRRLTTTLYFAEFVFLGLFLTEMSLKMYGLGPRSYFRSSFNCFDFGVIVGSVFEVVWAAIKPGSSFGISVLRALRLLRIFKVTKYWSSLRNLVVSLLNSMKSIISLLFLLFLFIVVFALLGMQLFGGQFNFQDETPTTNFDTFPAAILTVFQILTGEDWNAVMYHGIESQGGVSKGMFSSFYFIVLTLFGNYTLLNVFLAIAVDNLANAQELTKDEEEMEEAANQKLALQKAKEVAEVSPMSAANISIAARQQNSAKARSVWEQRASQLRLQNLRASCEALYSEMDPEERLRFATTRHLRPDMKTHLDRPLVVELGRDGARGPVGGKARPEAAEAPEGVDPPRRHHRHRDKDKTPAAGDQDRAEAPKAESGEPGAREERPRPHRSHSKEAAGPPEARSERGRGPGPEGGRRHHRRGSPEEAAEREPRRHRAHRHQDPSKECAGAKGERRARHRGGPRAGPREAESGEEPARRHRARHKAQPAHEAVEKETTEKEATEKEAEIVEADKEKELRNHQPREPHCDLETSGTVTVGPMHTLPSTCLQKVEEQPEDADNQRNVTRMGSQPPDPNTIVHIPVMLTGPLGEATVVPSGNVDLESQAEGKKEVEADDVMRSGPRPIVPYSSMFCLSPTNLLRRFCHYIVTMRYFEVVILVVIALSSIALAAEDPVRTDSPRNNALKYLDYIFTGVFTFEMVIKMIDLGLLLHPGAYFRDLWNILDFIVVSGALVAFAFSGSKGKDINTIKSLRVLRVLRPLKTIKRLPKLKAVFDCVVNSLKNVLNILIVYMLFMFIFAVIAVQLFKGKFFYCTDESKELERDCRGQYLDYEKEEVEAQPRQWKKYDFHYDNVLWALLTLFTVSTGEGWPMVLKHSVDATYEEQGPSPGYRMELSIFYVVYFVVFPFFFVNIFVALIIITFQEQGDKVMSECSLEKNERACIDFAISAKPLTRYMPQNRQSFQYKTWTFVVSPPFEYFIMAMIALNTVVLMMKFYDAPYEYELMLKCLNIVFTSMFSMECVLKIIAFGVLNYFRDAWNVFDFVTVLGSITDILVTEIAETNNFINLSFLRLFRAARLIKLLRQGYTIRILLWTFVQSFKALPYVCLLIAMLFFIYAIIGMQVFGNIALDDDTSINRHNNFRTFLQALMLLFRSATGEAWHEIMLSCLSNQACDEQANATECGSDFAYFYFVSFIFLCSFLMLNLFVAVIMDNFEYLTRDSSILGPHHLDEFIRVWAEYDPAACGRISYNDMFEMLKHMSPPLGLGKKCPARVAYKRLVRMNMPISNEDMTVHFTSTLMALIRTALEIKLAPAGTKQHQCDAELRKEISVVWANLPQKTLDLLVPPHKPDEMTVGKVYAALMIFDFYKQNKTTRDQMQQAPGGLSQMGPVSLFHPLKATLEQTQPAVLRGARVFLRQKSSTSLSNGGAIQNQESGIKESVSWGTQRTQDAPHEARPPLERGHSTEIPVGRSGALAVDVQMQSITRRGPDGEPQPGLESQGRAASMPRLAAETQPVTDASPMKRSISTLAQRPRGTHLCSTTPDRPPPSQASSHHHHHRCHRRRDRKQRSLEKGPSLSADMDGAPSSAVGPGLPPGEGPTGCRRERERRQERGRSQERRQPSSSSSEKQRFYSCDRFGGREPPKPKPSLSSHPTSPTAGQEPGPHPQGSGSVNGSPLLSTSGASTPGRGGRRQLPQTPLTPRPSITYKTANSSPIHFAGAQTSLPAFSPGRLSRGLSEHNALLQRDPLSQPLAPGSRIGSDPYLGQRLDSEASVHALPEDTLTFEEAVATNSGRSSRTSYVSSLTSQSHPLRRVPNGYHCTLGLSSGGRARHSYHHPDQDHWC
T4 sequence (Q02410 whole entry): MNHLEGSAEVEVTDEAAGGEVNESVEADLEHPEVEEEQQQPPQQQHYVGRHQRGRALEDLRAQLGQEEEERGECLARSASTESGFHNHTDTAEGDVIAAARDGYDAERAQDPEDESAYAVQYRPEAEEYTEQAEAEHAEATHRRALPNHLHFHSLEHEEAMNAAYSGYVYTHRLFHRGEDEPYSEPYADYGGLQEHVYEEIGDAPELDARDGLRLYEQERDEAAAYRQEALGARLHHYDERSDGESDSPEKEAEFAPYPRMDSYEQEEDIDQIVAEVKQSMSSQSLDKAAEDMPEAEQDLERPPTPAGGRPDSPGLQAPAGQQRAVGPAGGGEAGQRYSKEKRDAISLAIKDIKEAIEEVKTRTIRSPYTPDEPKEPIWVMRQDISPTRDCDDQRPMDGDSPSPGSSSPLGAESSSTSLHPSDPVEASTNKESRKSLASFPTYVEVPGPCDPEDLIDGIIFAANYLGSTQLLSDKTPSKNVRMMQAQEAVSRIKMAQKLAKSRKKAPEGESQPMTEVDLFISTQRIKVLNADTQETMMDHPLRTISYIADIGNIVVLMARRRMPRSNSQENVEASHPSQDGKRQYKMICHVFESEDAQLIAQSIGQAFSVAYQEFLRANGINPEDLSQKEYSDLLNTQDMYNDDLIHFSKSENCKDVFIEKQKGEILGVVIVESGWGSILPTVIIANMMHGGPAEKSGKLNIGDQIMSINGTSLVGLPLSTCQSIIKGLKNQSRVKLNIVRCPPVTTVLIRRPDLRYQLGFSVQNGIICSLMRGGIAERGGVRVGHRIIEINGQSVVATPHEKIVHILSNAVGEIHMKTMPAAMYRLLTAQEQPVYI
Chain of Melanocortin receptor 4 (P32245 whole entry): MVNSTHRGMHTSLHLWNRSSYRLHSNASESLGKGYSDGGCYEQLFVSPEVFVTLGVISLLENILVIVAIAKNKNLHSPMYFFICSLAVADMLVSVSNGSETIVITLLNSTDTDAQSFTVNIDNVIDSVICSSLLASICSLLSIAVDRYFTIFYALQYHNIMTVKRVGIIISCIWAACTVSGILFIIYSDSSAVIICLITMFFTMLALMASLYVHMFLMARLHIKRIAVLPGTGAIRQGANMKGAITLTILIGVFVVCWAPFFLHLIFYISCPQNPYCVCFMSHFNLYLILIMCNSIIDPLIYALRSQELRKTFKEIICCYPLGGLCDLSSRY
Chain of Glucose-6-phosphate 1-dehydrogenase (P11413 whole entry): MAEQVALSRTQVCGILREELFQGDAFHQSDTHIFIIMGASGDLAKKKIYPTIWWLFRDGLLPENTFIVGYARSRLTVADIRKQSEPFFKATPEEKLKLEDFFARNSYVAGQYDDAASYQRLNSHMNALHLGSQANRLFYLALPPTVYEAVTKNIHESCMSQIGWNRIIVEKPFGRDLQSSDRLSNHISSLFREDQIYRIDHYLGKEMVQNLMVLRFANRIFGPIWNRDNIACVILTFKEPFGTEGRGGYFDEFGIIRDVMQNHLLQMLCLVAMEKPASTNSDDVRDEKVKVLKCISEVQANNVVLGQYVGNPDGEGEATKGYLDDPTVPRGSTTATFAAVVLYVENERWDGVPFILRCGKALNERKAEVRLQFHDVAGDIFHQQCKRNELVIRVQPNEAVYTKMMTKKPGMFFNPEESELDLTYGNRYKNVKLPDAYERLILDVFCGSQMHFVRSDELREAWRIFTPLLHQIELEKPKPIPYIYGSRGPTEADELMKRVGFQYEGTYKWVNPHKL

COc1ccc(NC(=O)C2CC(=O)N(C)/C(=N\c3ccccc3OC)S2)cc1 (centres undefined)
inactive: IC50 [1] > 100 µM | IC50 [2] > 100 µM

CNC(=O)c1cn(CCOc2ccccc2)c2ccccc12
inactive: IC50 [3] > 100 µM | IC50 [4] > 100 µM | IC50 [6] > 100 µM
active: IC50 [5] 86.8 µM

O=C1C=CC(=O)N1CCNc1ncc(C(F)(F)F)cc1Cl
inactive: IC50 [13] > 80 µM | IC50 (Beta-galactosidase) > 66.6 µM | IC50 (Melanocortin receptor 4) 12.3 µM | IC50 [18] 15.1 µM
active: IC50 [7] 0.383 µM | EC50 [8] 10.4 µM | IC50 [9] 12 µM | IC50 [10] 1.53 µM | EC50 [11] 2.78 µM | EC50 [12] 3.98 µM | IC50 (CHO) 1.62 µM | AC50 [14] 0.482 µM | AC50 [15] 0.947 µM | AC50 [16] 16 µM | AC50 [17] 11.9 µM
> 150 µM (not active): EC50 (Streptokinase A) | EC50 (Streptococcus)

N#CC1=C(N)Oc2ccc3ccc(O)cc3c2C1c1ccsc1 (centres undefined)
inconclusive: EC50 [19] 76.1 µM | EC50 [20] 11 µM
inactive: EC50 (Troponin, cardiac muscle) 18.8 µM | AC50 (Keap1/Nrf2) > 52 µM | IC50 (Fibrinogen beta chain [26]) > 83.3 µM
active: EC50 [21] 10.4 µM | EC50 [22] 15.4 µM | AC50 (ORF 73) 51.6 µM | AC50 [23] 8.56 µM | AC50 [24] 52.3 µM | IC50 (Fibrinogen beta chain [25]) 8.51 µM

Source: ChEMBL document CHEMBL1201862, “PubChem BioAssay data set” (2004)
